Data on two compounds can be found in patent EP0387527A1, “Process for the fermentative production of L-lysine” (Degussa Aktiengesellschaft, priority 1989, dated 1990).

Like-named read-outs stand apart in the source and are kept apart here.

What all share (type): biochemical
Assay [1] has as its target Aspartat-Kinase (AK), C. glutamicum ATCC13032 (pCS23) (Corynebacterium glutamicum, UniProt P26512). Description: Aspartate kinase test, residual activity with effector combinations. The method, then:
(§1) Die Stämme ATCC13032 und DM58-1 wurden unter direkt vergleichbaren Bedingungen in Standard I Bouillon (Merck Art. Nr. 7882) mit zusätzlichen 4 g/l Glucose und 1 mM MgCl₂ bei 30 °C und 150 rpm bis zum Erreichen der früh stationären Phase kultiviert und durch Zentrifugation vom Kulturmedium getrennt. Man wäscht 3 Mal mit 100 mM Tris/HCl (pH 7,5); 1 mM DTT und suspendiert die Feuchtzellmasse in einem Volumenteil des gleiche Puffers.
(§2) Die so suspendierten Zellen wurden in einer Kugelmühle (B. Braun Melsungen - MSK-Homogenisator, IMA-Disintegrator S) durch Verrühren mit einer geeigneten Menge an Glasperlen aufgeschlossen. Das Zellhomogenat wurde mittels Glasfilternutsche von den Glasperlen getrennt und 30 Minuten bei 30000 x g klarzentrifugiert.
(§3) Nach 15stündiger Dialyse in Enzym-stabilisierendem Puffer wurden die Enzymaktivitäten in folgenden Testgemischen bestimmt:
(§4) Aspartat-Kinase Test: 100 mM Tris/HCl (pH 7,5), 1 mM DTT, 400 mM (NH₄)₂SO₄, 20 mM MgCl₂, 400 mM NH₂OH·HCl, 300 mM L-Aspartat, 40 mM ATP und verschiedene Mengen Enzympräparation. Durch Zugabe von 750 µl einer Lösung aus 10 % Fe Cl₃ 6H₂O; 3,3 % TCA; 0,7 N HCl zu 500 µl des Enzymtestgemisches wird die Enzymreaktion nach 30 minütiger Inkubation bei 37 °C gestoppt. Aus der mittels Eichkurvenverfahren photometrisch (ΔE540 nm) bestimmten Aspartyl-beta-Hydroxamat Konzentration wird die in µMol/mg·min (U/mg) angegebenen Enzymaktivität kalkuliert. Die zugehörigen Proteinkonzentrationen wurden nach der Methode von Lowry et al. (Lowry et al. J. Biol. Chem. 193, 265 (1951)) oder Bradford (Bradford Anal. Biochem. 72, 248 (1976)) durchgeführt. Der Aspartyl-β-semialdehyd Dehydrogenase Test enthält 120 mM Diethanolamin (pH 9,0); 40 mM Na AsO₄; 1 mM NADP⁺; 5 mM L-Threonin; 1,3 mM Aspartyl-beta-semialdehyd und verschiedene Mengen Enzympräparation in einem Gesamtvolumen von 1 ml. Die in µMol/mg·min (U/mg) angegebene Aktivitat wird über die photometrisch […] bestimmte NADPH Synthesegeschwindigkeit berechnet.
(§5) Aspartat-Kinase-Aktivität wurde in Stamm ATCC13032/pCS2, als positive Kontrolle in Stamm DM58-1 und als negative Kontrolle in Stamm ATCC13032 gemessen. Die Stämme wurden in Standard I Bouillon, das mit 4 g/l Glucose, 10 µg/ml Kanamycin und 1 mM MgCl₂ supplementiert war, kultiviert. Kulturbedingungen, Zellernte, Zellaufschluß und Bestimmung der Aspartat-Kinase wurden, wie unter 1.2 beschrieben, durchgeführt. Die Effektoren L-Lys, L-Thr und AEC werden jeweils als Stammlösungen in 100 mM Tris/HCl Puffer mit einem pH von 7,5 zugegeben.
(§6) Die Aspartat-Kinase-Aktivität und die Hemmbarkeit der Enzymaktivität durch Mischungen von Lysin bzw. AEC und Threonin wurde in den konstruierten Klonen bestimmt. Anzucht, Aufschluß und Aktivitätsbestimmung wurden, wie oben beschrieben, durchgeführt. Außerdem wurde die Fahigkeit der verschiedenen Klone untersucht, L-Lysin auszuscheiden. Hierfür wurde ein Agarplatten-Diffusionstest mit einem L-Lysin-auxotrophen Indikationsstamm von C. glutamicum verwendet. Aus Tabelle 4 ist zu entnehmen, daß sämtliche AEC resistenten Stämme eine partiell deregulierte Aspartat-Kinase-Aktivität besitzen und in der Lage sind, L-Lysin auszuscheiden. Tabelle 3

For assay [2], the target named is Aspartat-Kinase (AK), C. glutamicum ATCC13032 (pCS26) (Corynebacterium glutamicum, UniProt P26512). Described as above. The procedure:
as §1, §2, §3, §4, §5, §6

Assay [3] addresses Aspartat-Kinase (AK), C. glutamicum ATCC13032 (pCS233) (Corynebacterium glutamicum, UniProt P26512). The description is as above. The method, then: as §1, §2, §3, §4, §5, §6
For assay [4], the target named is Aspartat-Kinase (AK), C. glutamicum DM58-1 (pZ1) (Corynebacterium glutamicum, UniProt P26512). The assay is described as above. The procedure: as §1, §2, §3, §4, §5, §6
In assay [5] the target is Aspartat-Kinase (AK), C. glutamicum ATCC13032 (pCS2) (Corynebacterium glutamicum, UniProt P26512). The assay is described as above. The method, then:
as §1, §2, §3, §4, §5, §6

In assay [6] the target is Aspartat-Kinase (AK), C. glutamicum ATCC13032 (pCS24) (Corynebacterium glutamicum, UniProt P26512). Described as above. The procedure:
as §1, §2, §3, §4, §5, §6

In assay [7] the target is Aspartat-Kinase (AK) aus C. glutamicum DM58-1 (AEC resistente Mutante von ATCC13032) (Corynebacterium glutamicum, UniProt P26512). Description: Aspartate kinase test (hydroxamate), inhibition by effector combinations, dialysed crude extract. The procedure: as §1, §2, §3, §4
(§7) Tabelle 1 zeigt, das die bereits von K. Nakayama et al. (K. Nakayama et al. Agr. Biol. Chem. 30, 611 (1966)) angedeutete und von S.N. Kara-Murza et al. (S.N. Kara-Murza Prikladnaya Biokhimiya; Mikrobiologia 14, 345 (1978)) genauer untersuchte Hemmbarkeit des C. glutamicum Wildtyp-Enzyms durch uns reproduziert werden konnte. Dem gegen-übergestellt ist der deutlich differente Charakter des Enzyms der AEC resistenten Mutante DM58-1, deren Aspartat-Kinase nicht mehr konzertiert durch L-Lysin + L-Threonin hemmbar ist. Durch die am Enzym aus ATCC13032 Lysin-analog wirkenden Substanzen S-Aminoethyl-D,L-Cystein (AEC) wird das Enzym der Mutanten ebenfalls nur noch gering beeinflußt. Tabelle 1

The target in assay [8] is T1, Aspartat-Kinase (AK) aus C. glutamicum ATCC13032 (Wildtyp-Enzym) (Corynebacterium glutamicum, UniProt P26512).
T1 construct: Rohextrakten identisch gezogener; endogenous in cells; host or cells: C. glutamicum ATCC13032, dialysed crude extract
T1 sequence (P26512 1-421): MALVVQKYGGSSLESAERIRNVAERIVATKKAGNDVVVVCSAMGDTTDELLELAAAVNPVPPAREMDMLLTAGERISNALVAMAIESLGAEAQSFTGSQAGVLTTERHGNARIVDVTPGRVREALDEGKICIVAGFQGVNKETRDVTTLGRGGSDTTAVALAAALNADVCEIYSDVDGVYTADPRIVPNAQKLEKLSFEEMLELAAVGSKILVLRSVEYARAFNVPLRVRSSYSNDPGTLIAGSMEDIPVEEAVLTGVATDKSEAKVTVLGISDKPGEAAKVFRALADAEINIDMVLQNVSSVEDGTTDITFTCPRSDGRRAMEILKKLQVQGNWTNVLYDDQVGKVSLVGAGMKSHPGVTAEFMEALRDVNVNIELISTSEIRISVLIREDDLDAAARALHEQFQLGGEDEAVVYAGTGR
T1 sequence (P26512 1-172 isoform P26512-2): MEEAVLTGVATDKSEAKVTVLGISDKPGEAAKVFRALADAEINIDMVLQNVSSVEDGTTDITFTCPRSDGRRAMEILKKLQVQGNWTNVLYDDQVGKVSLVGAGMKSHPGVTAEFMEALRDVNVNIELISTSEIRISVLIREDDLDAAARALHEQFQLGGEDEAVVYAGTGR
The assay is described as above. The method, then: as §1, §2, §3, §4, §7

The target in assay [9] is Aspartat-Kinase (AK), C. glutamicum ATCC13032 pCS22 (Corynebacterium glutamicum, UniProt P26512). Description: Aspartate kinase test, residual activity with effector combinations. The procedure: as §1, §2, §3, §4, §5, §6
The target in assay [10] is Aspartat-Kinase (AK), C. glutamicum ATCC13032 (pCS21) (Corynebacterium glutamicum, UniProt P26512). The assay is described as above. The procedure: as §1, §2, §3, §4, §5, §6

On to `NCCSCC(N)C(=O)O` (racemic) [AEC, S-(Aminoethyl)-D,L-Cystein], for which the “AK Restaktivität (%) in Anwesenheit von 100mM AEC 10mM Thr” value in assay [1] (100mM AEC + 10mM Thr) turned out to be 56%; in [2] (100mM AEC + 10mM Thr), 60%; in [3] (100mM AEC + 10mM Thr), 57%; in assay [4] (100mM AEC + 10mM Thr), 93%; in assay [5] (100mM AEC + 10mM Thr) it was 56%; in [6] (100mM AEC + 10mM Thr), 62%. The AK-Hemmung in [7] (10 mM AEC + 1 mM L-Thr) is on record as 0%; in assay [7] (10 mM AEC + 10 mM L-Thr) it was 0%; in [7] (100 mM AEC + 10 mM L-Thr), 7%. Also, the inhibition at 10000 µM in [8] (10 mM AEC + 1 mM L-Thr, read-out: AK-Hemmung) stood at 12%; in [8] (10 mM AEC + 10 mM L-Thr, read-out: AK-Hemmung), 41%. In assay [8] (100 mM AEC + 10 mM L-Thr, read-out: AK-Hemmung), the inhibition at 100000 µM turned out to be 95%.

Regarding `NCCCC[C@H](N)C(=O)O` [L-Lys, L-Lysin], the “AK Restaktivität (%) in Anwesenheit von 10mM Lys 1mM Thr” value in [1] (10mM Lys + 1mM Thr) turned out to be 51%; in assay [2] (10mM Lys + 1mM Thr) it was 64%; in assay [3] (10mM Lys + 1mM Thr), 56%; in [4] (10mM Lys + 1mM Thr) it was 83%; in assay [5] (10mM Lys + 1mM Thr) it was 55%; in assay [6] (10mM Lys + 1mM Thr), 65%. Also, the “AK Restaktivität (%) in Anwesenheit von 10mM Lys 1mM Thr” value in assay [9] (10mM Lys + 1mM Thr) was 40%; in assay [10] (10mM Lys + 1mM Thr), 46%. In addition, the “AK Restaktivität (%) in Anwesenheit von 10mM Lys 10mM Thr” value is 57% in assay [1] (10mM Lys + 10mM Thr); 63% in assay [2] (10mM Lys + 10mM Thr); 62% in assay [3] (10mM Lys + 10mM Thr); 100% in [4] (10mM Lys + 10mM Thr); 55% in [5] (10mM Lys + 10mM Thr); 65% in assay [6] (10mM Lys + 10mM Thr). Also, the “AK Restaktivität (%) in Anwesenheit von 10mM Lys 10mM Thr” value in assay [9] (10mM Lys + 10mM Thr) turned out to be 41%; in assay [10] (10mM Lys + 10mM Thr), 50%. Further, the “AK Restaktivität (%) in Anwesenheit von 100mM Lys 10mM Thr” value in assay [1] (100mM Lys + 10mM Thr) was 30%; in assay [2] (100mM Lys + 10mM Thr) it was 39%; in assay [3] (100mM Lys + 10mM Thr) it was 36%; in assay [4] (100mM Lys + 10mM Thr) it was 79%; in assay [5] (100mM Lys + 10mM Thr), 28%; in assay [6] (100mM Lys + 10mM Thr), 40%. Also, the “AK Restaktivität (%) in Anwesenheit von 100mM Lys 10mM Thr” value worked out at 22% in assay [9] (100mM Lys + 10mM Thr) and 24% in assay [10] (100mM Lys + 10mM Thr). Further, the AK-Hemmung in assay [7] (10 mM L-Lys + 1 mM (second inhibitor not named, L-Thr)) came out at 12%; in assay [7] (10 mM L-Lys + 10 mM L-Thr), 2%; in assay [7] (100 mM L-Lys + 10 mM L-Thr), 21%. Moreover, the inhibition at 10000 µM in assay [8] (read-out: AK-Hemmung, 10 mM L-Lys + 1 mM (second inhibitor not named, L-Thr)) turned out to be 89%; in assay [8] (read-out: AK-Hemmung, 10 mM L-Lys + 10 mM L-Thr), 95%. In assay [8] (read-out: AK-Hemmung, 100 mM L-Lys + 10 mM L-Thr), the inhibition at 100000 µM was found to be 99%.
